Results reported in patent US11542233B2, “Compounds, compositions and methods of use” (Aquinnah Pharmaceuticals, Inc., priority 2016, dated 2023).

Tested on: TDP-43 aggregation in PC12 cells stably expressing GFP-tagged mutant TDP-43 (TDP-43^Q33IK::eGFP)
Assay: In vitro efficacy assay: inhibition of TDP-43 inclusions, concentration-response, fluorescence microscopy
Format: cell-based
Conditions: Rattus norvegicus, PC-12, PC12 cells, 1 hour pre-treatment, 15 μM sodium arsenite for 23 hours, 10-point dose response curve
Procedure, shortened: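 PC12 cells stably expressing TDP-43^Q33IK::eGFP pre-treated 1 h with compound, then stressed with 15 μM sodium arsenite for 23 h. Fluorescence microscopy gave the fraction of GFP-positive cells bearing aggregates; IC50 from concentration-response, reported in bins: A <100 nM, B 100–500 nM, C 500 nM–2 μM, D >2 μM.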

| Compound | IC50 [nM] |
| --- | --- |
| CCN(C(=O)c1nc2cc(F)ccc2[nH]1)[C@H]1CCC[C@@H](NCc2ccc(C#N)cc2)C1 [Compound 527] | < 100 |
| CCN(C(=O)c1nc2cc(F)ccc2[nH]1)[C@H]1CCC[C@@H](NCc2cccc(C#N)c2)C1 [Compound 528] | < 100 |
| CCN(C(=O)c1nc2cc(C#N)ccc2[nH]1)[C@H]1CCC[C@@H](NCc2ccc3ocnc3c2)C1 [Compound 529] | < 100 |
| CCN(C(=O)c1nc2ccccc2[nH]1)[C@H]1CCC[C@@H](NCc2ccc3nc(C)oc3c2)C1 [Compound 530, N-ethyl-N-((1S,3R)-3-(((2-methylbenzo[d]oxazol-6-yl)methyl)amino)cyclohexyl)-1H-benzo[d]imidazole-2-carboxamide] | < 100 |
| CCN(C(=O)c1nc2ccccc2[nH]1)[C@H]1CCC[C@@H](NCc2ccc3oc(C)nc3c2)C1 [Compound 531] | 100 to 500 |
| CCN(C(=O)c1cc2cc(C#N)ccc2[nH]1)[C@H]1CCC[C@@H](NCc2ccc(F)cc2)C1 [Compound 532, 5-cyano-N-ethyl-N-((1S,3R)-3-((4-fluorobenzyl)amino)cyclohexyl)-1H-indole-2-carboxamide] | < 100 |
| CCN(C(=O)c1cc2cc(C#N)ccc2[nH]1)[C@H]1CCC[C@@H](NCc2cc3ccccc3o2)C1 [Compound 533] | < 100 |
| CCN(C(=O)c1cc2cc(C#N)ccc2[nH]1)[C@H]1CCC[C@@H](NCc2cccc(F)c2)C1 [Compound 534] | < 100 |
| CCN(C(=O)c1cc2cc(C#N)ccc2[nH]1)[C@H]1CCC[C@@H](NCc2oc3ccccc3c2C)C1 [Compound 535] | < 100 |
| CCN(C(=O)c1cc2cc(C#N)ccc2[nH]1)[C@H]1CCC[C@@H](NCc2oc3ccccc3c2C#N)C1 [Compound 536, 5-cyano-N-((1S,3R)-3-(((3-cyanobenzofuran-2-yl)methyl)amino)cyclohexyl)-N-ethyl-1H-indole-2-carboxamide] | < 100 |
| CCN(C(=O)c1nc2cc(C#N)ccc2[nH]1)[C@H]1CCC[C@@H](NCc2cc(C3CC3)on2)C1 [Compound 537] | < 100 |
| CCN(C(=O)c1cc2cc(C#N)ccc2[nH]1)[C@H]1CCC[C@@H](NCc2ccccc2)C1 [Compound 538, N-((1S,3R)-3-(benzylamino)cyclohexyl)-5-cyano-N-ethyl-1H-indole-2-carboxamide] | < 100 |
| CCN(C(=O)c1nc2cc(OC(F)(F)F)ccc2[nH]1)[C@H]1CCC[C@@H](NCc2ccccc2)C1 [Compound 539, N-((1S,3R)-3-(benzylamino)cyclohexyl)-N-ethyl-5-(trifluoromethoxy)-1H-benzo[d]imidazole-2-carboxamide] | < 100 |
| CCN(C(=O)c1nc2cc(S(C)(=O)=O)ccc2[nH]1)[C@H]1CCC[C@@H](NCc2ccccc2)C1 [Compound 540] | < 100 |
| CCN(C(=O)c1nc2cc(C3CC3)ccc2[nH]1)[C@H]1CCC[C@@H](NCc2ccccc2)C1 [Compound 541] | < 100 |
| CCN(C(=O)c1cc2cc(OC(F)(F)F)ccc2[nH]1)[C@H]1CCC[C@@H](NCc2ccccc2)C1 [Compound 542, N-((1S,3R)-3-(benzylamino)cyclohexyl)-N-ethyl-5-(trifluoromethoxy)-1H-indole-2-carboxamide] | < 100 |
| CCN(C(=O)c1cc2cc(C3CC3)ccc2[nH]1)[C@H]1CCC[C@@H](NCc2ccccc2)C1 [Compound 543] | < 100 |
| CCN(C(=O)c1cc2cc(C(F)(F)F)ccc2[nH]1)[C@H]1CCC[C@@H](NCc2ccccc2)C1 [Compound 544] | < 100 |
| CCN(C(=O)c1nc2cc(C(F)(F)F)ccc2[nH]1)[C@H]1CCC[C@@H](NCc2ccccc2)C1 [Compound 545] | < 100 |
| CCN(C(=O)c1cc2cc(S(C)(=O)=O)ccc2[nH]1)[C@H]1CCC[C@@H](NCc2ccccc2)C1 [Compound 546] | 100 to 500 |
| CCN(C(=O)c1cc2cc(F)ccc2[nH]1)[C@H]1CCC[C@@H](NCc2ccccc2)C1 [Compound 547, N-((1S,3R)-3-(benzylamino)cyclohexyl)-N-ethyl-5-fluoro-1H-indole-2-carboxamide] | < 100 |

| Compound | IC50 [nM] |
| --- | --- |
| CCN(C(=O)c1cc2cc(F)ccc2[nH]1)[C@H]1CCC[C@@H](NCc2oc3ccccc3c2C)C1 [Compound 548] | < 100 |
| CCN(C(=O)c1cc2cc(F)ccc2[nH]1)[C@H]1CCC[C@@H](NCc2cccc(F)c2)C1 [Compound 549] | < 100 |
| CCN(C(=O)c1cc2cc(F)ccc2[nH]1)[C@H]1CCC[C@@H](NCc2cc3ccccc3o2)C1 [Compound 550] | < 100 |
| CCN(C(=O)c1cc2cc(F)ccc2[nH]1)[C@H]1CCC[C@@H](NCc2ccc(F)cc2)C1 [Compound 551] | < 100 |
| CCN(C(=O)c1nc2cc(F)ccc2[nH]1)[C@H]1CCC[C@@H](NCc2cc(C3CC3)on2)C1 [Compound 552, N-((1S,3R)-3-(((5-cyclopropylisoxazol-3-yl)methyl)amino)cyclohexyl)-N-ethyl-5-fluoro-1H-benzo[d]imidazole-2-carboxamide] | < 100 |
| CCN(C(=O)c1cc2cc(F)ccc2[nH]1)[C@H]1CCC[C@@H](NCc2oc3ccccc3c2C#N)C1 [Compound 553] | < 100 |
| CCN(C(=O)c1nc2ccccc2[nH]1)[C@H]1CCC[C@@H](NCc2cc(C(F)(F)F)on2)C1 [Compound 554, N-ethyl-N-((1S,3R)-3-(((5-(trifluoromethyl)isoxazol-3-yl)methyl)amino)cyclohexyl)-1H-benzo[d]imidazole-2-carboxamide] | < 100 |
| CCN(C(=O)c1nc2ccccc2[nH]1)[C@@]1(C)CCC[C@@H](NCc2ccccc2)C1 [Compound 555, N-((1S,3R)-3-(benzylamino)-1-methylcyclohexyl)-N-ethyl-1H-benzo[d]imidazole-2-carboxamide] | > 2000 |
| CCN(C(=O)c1nc2cc(F)ccc2[nH]1)[C@@]1(C)CCC[C@@H](NCc2ccccc2)C1 [Compound 556, N-((1S,3R)-3-(benzylamino)-1-methylcyclohexyl)-N-ethyl-5-fluoro-1H-benzo[d]imidazole-2-carboxamide] | > 2000 |
| C#CCOc1ccc(CN[C@@H]2CCC[C@H](N(CC)C(=O)c3nc4cc(N=[N+]=[N-])ccc4[nH]3)C2)cc1 [Compound 557, 5-azido-N-ethyl-N-((1S,3R)-3-((4-(prop-2-yn-1-yloxy)benzyl)amino)cyclohexyl)-1H-benzo[d]imidazole-2-carboxamide] | < 100 |
| C#CCOc1cccc(CN[C@@H]2CCC[C@H](N(CC)C(=O)c3nc4c(N=[N+]=[N-])cccc4[nH]3)C2)c1 [Compound 560] | < 100 |
| C#CCOc1ccc(CN[C@@H]2CCC[C@H](N(CC)C(=O)c3nc4cc([N+](=O)[O-])ccc4[nH]3)C2)cc1 [Compound 561, N-ethyl-5-nitro-N-((1S,3R)-3-((4-(prop-2-yn-1-yloxy)benzyl)amino)cyclohexyl)-1H-benzo[d]imidazole-2-carboxamide] | < 100 |
| C#CCOc1ccc(CN[C@@H]2CCC[C@H](N(CC)C(=O)c3nc4cc(N)ccc4[nH]3)C2)cc1 [Compound 562, 5-amino-N-ethyl-N-((1S,3R)-3-((4-(prop-2-yn-1-yloxy)benzyl)amino)cyclohexyl)-1H-benzo[d]imidazole-2-carboxamide] | 500 to 2000 |
| C#CCOc1cccc(CN[C@@H]2CCC[C@H](N(CC)C(=O)c3nc4cc([N+](=O)[O-])ccc4[nH]3)C2)c1 [Compound 563] | < 100 |
| C#CCOc1cccc(CN[C@@H]2CCC[C@H](N(CC)C(=O)c3nc4cc(N)ccc4[nH]3)C2)c1 [Compound 564] | 100 to 500 |
| C#CCOc1ccc(CN[C@@H]2CCC[C@H](N(CC)C(=O)c3nc4c([N+](=O)[O-])cccc4[nH]3)C2)cc1 [Compound 565] | < 100 |
| C#CCOc1cccc(CN[C@@H]2CCC[C@H](N(CC)C(=O)c3nc4c([N+](=O)[O-])cccc4[nH]3)C2)c1 [Compound 566] | < 100 |
| C#CCOc1ccc(CN[C@@H]2CCC[C@H](N(CC)C(=O)c3nc4c(N)cccc4[nH]3)C2)cc1 [Compound 567] | < 100 |
| C#CCOc1cccc(CN[C@@H]2CCC[C@H](N(CC)C(=O)c3nc4c(N)cccc4[nH]3)C2)c1 [Compound 568] | < 100 |
| CCN(C(=O)c1nc2cc(F)ccc2[nH]1)[C@H]1CCC[C@@H](NCc2oc3ccccc3c2C#N)C1 [compound 510] | < 100 |
